# Numbered stars: 1 amine (or outer) side, 2 acyl side, 3 side chain; on linkers, the order of the positions; unused ones are H or OH. Bridge positions count the residues as written; N and C are the ends. Square brackets hold non-standard residues; d marks the D form. Peptide text beside a SMILES is read from it. * marks the point of attachment. ξ: configuration not given here. Phe(3-CF3) = N[C@@H](Cc1cccc(C(F)(F)F)c1)C(=O)O; Phe(4-CF3) = N[C@@H](Cc1ccc(C(F)(F)F)cc1)C(=O)O; Phe(4-CONH2) = NC(=O)c1ccc(C[C@H](N)C(=O)O)cc1; Phe(4-COOH) = N[C@@H](Cc1ccc(C(=O)O)cc1)C(=O)O; Bip = N[C@@H](Cc1ccc(-c2ccccc2)cc1)C(=O)O; Phe(3-Me) = Cc1cccc(C[C@H](N)C(=O)O)c1; γGlu = O=C(O)[C@H](CCC(=O)[*:2])N[*:1]; βAsp = O=C(O)[C@H](CC(=O)[*:2])N[*:1]; NH(CH2)12COOH = O=C(O)CCCCCCCCCCCCN*; Val(3-OH) = CC(C)(O)[C@H](N)C(=O)O; 4Pal = N[C@@H](Cc1ccncc1)C(=O)O; 3Thi = N[C@@H](Cc1ccsc1)C(=O)O; Cha = N[C@@H](CC1CCCCC1)C(=O)O; Cit = NC(=O)NCCC[C@H](N)C(=O)O; Thr(3ξ) = CC(O)[C@H](N)C(=O)O; Phg = N[C@H](C(=O)O)c1ccccc1; Carboxymethyl = O=C(O)C*; Orn = NCCC[C@H](N)C(=O)O; Aun = NCCCCCCCCCCC(=O)O; Dab = NCC[C@H](N)C(=O)O; Dap = NC[C@H](N)C(=O)O; AEEA = NCCOCCOCC(=O)O
# Target: T1, PD-1/PD-L1 interaction (PE-labeled human PD-L1-Ig binding to Jurkat cell line over-expressing human PD-1) (Homo sapiens, UniProt Q15116)
# T1 construct: expressed in transfected cells; host or cells: Jurkat
# T1 sequence (Q15116 25-288): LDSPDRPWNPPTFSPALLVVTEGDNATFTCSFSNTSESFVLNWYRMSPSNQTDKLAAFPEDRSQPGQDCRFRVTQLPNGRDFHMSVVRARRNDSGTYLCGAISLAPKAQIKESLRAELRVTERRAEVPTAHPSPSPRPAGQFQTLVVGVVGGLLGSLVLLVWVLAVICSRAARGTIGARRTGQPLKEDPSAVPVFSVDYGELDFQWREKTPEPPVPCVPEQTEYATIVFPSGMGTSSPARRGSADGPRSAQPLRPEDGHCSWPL
# Experiment: Jurkat-PD-1 Cell Binding High-Content Screening Assay (CBA)
# Assay type: cell-based
# Conditions: Jurkat cell line over-expressing human PD-1; PE-labeled PD-L1-Ig 20 nM final; read-out: Jurkat hPD1-PDL1 IC50
# Procedure, shortened: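 Read-out is high-content imaging of cell-bound phycoerythrin-tagged PD-L1-Ig on fixed, Hoechst-counterstained Jurkat cells that over-express human PD-1. Compound exposure lasts 2 h at 37° C before the labeled ligand (20 nM final) is added for a further hour.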
row,IC50,Compound
1,50.4 nM,Cc1cccc(C[C@@H]2NC(=O)[C@H](CC(=O)O)NC(=O)[C@H](Cc3ccc(OCC(=O)O)cc3)NC(=O)[C@H](CCN)NC(=O)CSC[C@@H](C(=O)NCCOCCOCC(=O)NCCCCCCCCCCC(=O)O)NC(=O)[C@H](C(C)O)NC(=O)[C@H](C(C)(C)O)NC(=O)[C@H](CC3CCCCC3)NC(=O)[C@H](CCN)NC(=O)[C@@H](CC(C)C)NC(=O)[C@H](CCCN)NC(=O)[C@H](Cc3ccc(O)cc3)NC(=O)[C@H](Cc3ccc(-c4ccccc4)cc3)NC(=O)[C@H](Cc3ccc(C(N)=O)cc3)NC2=O)c1 (stereo partly drawn) [Compound 3727] ({CH2CO}-[Dab]Y(Carboxymethyl)D[Phe(3-Me)][Phe(4-CONH2)][Bip]Y[Orn][dL][Dab][Cha][Val(3-OH)][Thr(3ξ)]C[AEEA][Aun]-OH; thioether N-14)
2,19.8 nM,Cc1cccc(C[C@@H]2NC(=O)[C@H](CC(=O)O)NC(=O)[C@H](Cc3ccc(OCC(=O)O)cc3)NC(=O)[C@H](C(C)O)NC(=O)CSC[C@@H](C(=O)N[C@@H](CCN)C(=O)NCCCCCCCCCCCCC(=O)O)NC(=O)[C@H](CO)NC(=O)[C@H](C(C)(C)O)NC(=O)[C@H](CC3CCCCC3)NC(=O)[C@H](CCN)NC(=O)[C@@H](CC(C)C)NC(=O)[C@H](CCCN)NC(=O)[C@H](Cc3ccc(OCC(=O)O)cc3)NC(=O)[C@H](Cc3ccc(-c4ccccc4)cc3)NC(=O)[C@H](Cc3ccc(C(F)(F)F)cc3)NC2=O)c1 (stereo partly drawn) [Compound 3810] ({CH2CO}-[Thr(3ξ)]Y(Carboxymethyl)D[Phe(3-Me)][Phe(4-CF3)][Bip]Y(Carboxymethyl)[Orn][dL][Dab][Cha][Val(3-OH)]SC[Dab]-{NH(CH2)12COOH}; thioether N-14)
3,24.5 nM,CC(=O)NCCCC[C@@H]1NC(=O)[C@H](C(C)(C)O)NC(=O)[C@H](CC2CCCCC2)NC(=O)[C@H](CCN)NC(=O)[C@@H](CC(C)C)NC(=O)[C@H](CCCN)NC(=O)[C@H](CCC(N)=O)NC(=O)[C@H](Cc2ccc(-c3ccccc3)cc2)NC(=O)[C@H](Cc2ccc(C(=O)O)cc2)NC(=O)[C@H](Cc2cccc(C(F)(F)F)c2)NC(=O)[C@H](CC(=O)O)NC(=O)[C@H](Cc2ccc(OCC(=O)O)cc2)NC(=O)[C@H](Cc2ccc(OCC(=O)O)cc2)NC(=O)CSC[C@@H](C(=O)N[C@@H](CCN)C(=O)NCCCCCCCCCCCCC(=O)O)NC1=O [Compound 3881] ({CH2CO}-Y(Carboxymethyl)Y(Carboxymethyl)D[Phe(3-CF3)][Phe(4-COOH)][Bip]Q[Orn][dL][Dab][Cha][Val(3-OH)]K(Ac)C[Dab]-{NH(CH2)12COOH}; thioether N-14)

# Further lines, the compound ahead of its results:
row,Compound,IC50
1,Cc1cccc(C[C@@H]2NC(=O)[C@H](CC(=O)O)NC(=O)[C@H](Cc3ccc(OCC(=O)O)cc3)NC(=O)[C@H](CN)NC(=O)CSC[C@@H](C(=O)N[C@@H](CCN)C(=O)NCCCCCCCCCCC(=O)O)NC(=O)[C@H](c3ccccc3)NC(=O)[C@H](C(C)C)NC(=O)[C@H](CC(C)C)NC(=O)[C@H](CCN)NC(=O)[C@@H](CC(C)C)NC(=O)[C@H](CCCN)NC(=O)[C@H](Cc3ccc(O)cc3)NC(=O)[C@H](Cc3ccc(-c4ccccc4)cc3)NC(=O)[C@H](C(C)C)NC2=O)c1 [Compound 2772] ({CH2CO}-[Dap]Y(Carboxymethyl)D[Phe(3-Me)]V[Bip]Y[Orn][dL][Dab]LV[Phg]C[Dab][Aun]-OH; thioether N-14),67.7 nM
2,CC(C)C[C@H]1NC(=O)[C@H](CCCN)NC(=O)[C@H](Cc2ccc(C(=O)O)cc2)NC(=O)[C@H](Cc2ccc(-c3ccccc3)cc2)NC(=O)[C@H](Cc2ccc(C(=O)O)cc2)NC(=O)[C@H](Cc2cccc(C(F)(F)F)c2)NC(=O)[C@H](CC(=O)O)NC(=O)[C@H](Cc2ccc(OCC(=O)O)cc2)NC(=O)[C@H](C)NC(=O)CSC[C@@H](C(=O)N[C@@H](CCN)C(=O)NCCOCCOCC(=O)N[C@@H](CC(=O)NCCOCCOCC(=O)NCCCCCCCCCCCCC(=O)O)C(=O)O)NC(=O)[C@H](CO)NC(=O)[C@H](C(C)(C)O)NC(=O)[C@H](CC2CCCCC2)NC(=O)[C@H](CCN)NC1=O [Compound 2935] ({CH2CO}-AY(Carboxymethyl)D[Phe(3-CF3)][Phe(4-COOH)][Bip][Phe(4-COOH)][Orn][dL][Dab][Cha][Val(3-OH)]SC[Dab][AEEA][βAsp][AEEA]-{NH(CH2)12COOH}; thioether N-14),42.4 nM
3,CC(C)C[C@H]1NC(=O)[C@H](CCCN)NC(=O)[C@H](C(C)C)NC(=O)[C@H](Cc2ccc(-c3ccccc3)cc2)NC(=O)[C@H](C(C)C)NC(=O)[C@H](Cc2c[nH]c3ccccc23)NC(=O)[C@H](CC(=O)O)NC(=O)[C@H](Cc2ccc(OCC(=O)O)cc2)NC(=O)[C@H](Cc2ccncc2)NC(=O)CSC[C@@H](C(=O)NCC(=O)NCCOCCOCC(=O)N[C@@H](CCCN)C(=O)NCCCCCCCCCCC(=O)O)NC(=O)[C@H](CCN)NC(=O)[C@H](C(C)C)NC(=O)[C@H](CC2CCCCC2)NC(=O)[C@H](CCN)NC1=O [Compound 3236] ({CH2CO}-[4Pal]Y(Carboxymethyl)DWV[Bip]V[Orn][dL][Dab][Cha]V[Dab]CG[AEEA][Orn][Aun]-OH; thioether N-14),3.9 nM
4,Cc1cccc(C[C@@H]2NC(=O)[C@H](CC(=O)O)NC(=O)[C@H](Cc3ccc(OCC(=O)O)cc3)NC(=O)[C@H](CN)NC(=O)CSC[C@@H](C(=O)N[C@@H](C)C(=O)N[C@@H](CC(=O)O)C(=O)NCCOCCOCC(=O)N[C@@H](CCC(=O)NCCOCCOCC(=O)NCCCCCCCCCCC(=O)O)C(=O)O)NC(=O)[C@H]([C@@H](C)O)NC(=O)[C@H](C(C)C)NC(=O)[C@H](CC3CCCCC3)NC(=O)[C@H](CCN)NC(=O)[C@@H](CC(C)C)NC(=O)[C@H](CCCN)NC(=O)[C@H](CCCNC(N)=O)NC(=O)[C@H](Cc3ccc(-c4ccccc4)cc3)NC(=O)[C@H](C(C)C)NC2=O)c1 [Compound 1014] ({CH2CO}-[Dap]Y(Carboxymethyl)D[Phe(3-Me)]V[Bip][Cit][Orn][dL][Dab][Cha]VTCAD[AEEA][γGlu][AEEA][Aun]-OH; thioether N-14),5.5 nM
5,Cc1cccc(C[C@@H]2NC(=O)[C@H](CC(=O)O)NC(=O)[C@H](Cc3ccc(OCC(=O)O)cc3)NC(=O)[C@H](CN)NC(=O)CSC[C@@H](C(=O)N[C@@H](CCCCN)C(=O)NCCOCCOCC(=O)NCCCCCCCCCCC(=O)O)NC(=O)[C@H](CN)NC(=O)[C@H](C(C)C)NC(=O)[C@H](CC3CCCCC3)NC(=O)[C@H](CCN)NC(=O)[C@@H](CC(C)C)NC(=O)[C@H](CCCN)NC(=O)[C@H](CCCNC(N)=O)NC(=O)[C@H](Cc3ccc(-c4ccccc4)cc3)NC(=O)[C@H](C(C)C)NC2=O)c1 [Compound 2649] ({CH2CO}-[Dap]Y(Carboxymethyl)D[Phe(3-Me)]V[Bip][Cit][Orn][dL][Dab][Cha]V[Dap]CK[AEEA][Aun]-OH; thioether N-14),11.1 nM
6,CC(C)C[C@H]1NC(=O)[C@H](CCN)NC(=O)[C@H](C(C)C)NC(=O)[C@H](Cc2ccc(-c3ccccc3)cc2)NC(=O)[C@H](C(C)C)NC(=O)[C@H](Cc2c[nH]c3ccccc23)NC(=O)[C@H](CC(=O)O)NC(=O)[C@H](Cc2ccc(OCC(=O)O)cc2)NC(=O)[C@H](Cc2ccsc2)NC(=O)CSC[C@@H](C(=O)N[C@H](CC(N)=O)C(=O)NCCCCCCCCCCC(=O)O)NC(=O)[C@H](CCCCN)NC(=O)[C@H](C(C)C)NC(=O)[C@H](CC2CCCCC2)NC(=O)[C@H](CCN)NC1=O [Compound 3286] ({CH2CO}-[3Thi]Y(Carboxymethyl)DWV[Bip]V[Dab][dL][Dab][Cha]VKC[dN][Aun]-OH; thioether N-14),8.3 nM

# Reference: patent US20260022142A1, “MACROCYCLIC IMMUNOMODULATORS” (Bristol-Myers Squibb Company, priority 2022, published 2026)
